From US4456614A, “3-Amino-1-[(1,4-benzodioxan)-2-yl-methoxy]-2-propanols, pharmaceutical compositions thereof, and their use as medicaments” (Pierre Fabre S.A., priority 1980, dated 1984)
Structures can show the parent of a compound that is named as a salt.

What was measured:
[1] = system: isolated atrium (rabbit right atrium); experiment: Effect on the frequency of spontaneous flutterings of the isolated atrium; details: for inhibition at 10 µg/mL: Oryctolagus cuniculus, 0.4 h, after 24 minutes, 1 mg (per 100 ml), read-out: Percentage of reduction of the frequency
Experimental: (c) Effect on the frequency of spontaneous flutterings of the isolated atrium. Method: Rabbit right atrium in survival in a Ringer-Locke's solution. The substances to be studied are introduced into the tank (at the rate of 0.5 and 1 mg per 100 ml) and remain in contact with the myocardial tissue for 24 minutes.

[2] = system: ventricular tachycardia of digitalic origin; experiment: Ventricular tachycardia of digitalic origin (ouabain) in anesthetized dogs; assay type: in vivo; details: doses of 2 and 5 mg/kg
Source text: (a) Action with respect to ventricular tachycardia of digitalic origin (LUCHESI and HARDMAN--J. Pharmacol. exp. Ther., 1961, No. 132, pages 372 to 81).
Method: Creation of a stable ventricular tachycardia in ten dogs (anesthetized) by successive intravenous injections of ouabain.

[3] = system: auricular tachycardia produced by aconitine; experiment: Auricular tachycardia produced by aconitine in dogs; assay type: in vivo; details: 5 mg/kg
Source text: (b) Influence on an auricular tachycardia produced by aconitine.
Method: (D. SCHERF--Proc. Soc. exp. Biol., 1947, 64, 233). A tachycardia is caused in dogs by intramural injection of aconitine in the right atrium near the sinusoidal node.
The rhythm is increased in proportions of 80 to 100%. The auriculo-ventricular tracks show normal permeability, the ventricles are driven at the same frequency.

isolated rabbit atrium = experiment: Activity on the electrosystolic entrainment of the isolated rabbit atrium; details: isolated rabbit right atrium, Ringer-Locke's solution
Experimental: (d) Activity on the electrosystolic entrainment of the isolated rabbit atrium (G. S. DAWES--Pharmacol. Rev., 4, 43-84, 1952).
Method: Rabbit right atrium in a Ringer-Locke's solution.
After determination of the threshold voltage for the entrainment of the muscle, the latter is subjected to frequencies which increase in successive steps until obtaining a maximum frequency for which the tissue is incapable of responding to the stimuli.
The product is added to the bath. Three electric entrainments are effected in the following 25 minutes. The experiment is then continued for one hour after the rinsing of the tank.

adrenergic receptors = experiment: Inhibitory property of the adrenergic receptors (isoprenaline tachycardia in dogs); assay type: in vivo
Source text: (2) Search for an inhibitory property of the adrenergic receptors
Method: Isoprenaline tachycardia in dogs. Simultaneous recording of the heart rate and of the arterial pressure.

cardiovascular system = experiment: Systemic effects in dogs; assay type: in vivo; details: 1, 2 and 5 mg/kg
Experimental: (3) Systemic effects in dogs
Doses used: 1, 2 and 5 mg/kg
left intraventricular pressure

central nervous system = experiment: Potentialization of the barbiturate and chloralhydrate anesthesia in mice; assay type: in vivo; details: 100 mg/kg
Source text: Potentialization of the barbiturate and chloralhydrate anesthesia in mice.

toxicity of pentetrazole = experiment: Anticonvulsant property (pentetrazole toxicity in mice); assay type: in vivo; details: orally, 100 mg/kg, pentetrazole subcutaneously
Source text: Anticonvulsant property (G. CHEN and R. PORTMAN, A.M.A. Arch. Neurol. Psychiat., 68, 498, 1952).

toxicity to yohimbine = experiment: Anti-depressant properties (potentialization of yohimbine toxicity in mice); assay type: in vivo
Source text: Anti-depressant properties (W. J. LANG and S. GORSHORN Arch. Int. Pharmacodyn., 142, 457, 1963).

Local anesthesia = Local anesthesia (test of J. Regnier); assay type: in vivo; details: 1% solution
Source text: Local anesthesia: test of J. Regnier--Doctoral Dissertation, Med., 203 pages, Bruilliard St Dizier, 1929.

Urinary excretion = experiment: Diuretic effect in rats (Lipschitz); assay type: in vivo; details: 100 mg/kg orally
Source text: Diuretic effect (W. LIPSCHITZ J. Pharmacol. Exp. Ther., 79, 97, 1943) in rats.

Solubility in water = assay type: physicochemical

CCC1CN2CCC1CC2[C@@H](O)c1ccnc2ccc(OC)cc12 (stereo partly shown) [Dihydroquinidine, reference compound]
inhibition at 10 µg/mL [1]: 35%

CC(C)(C)NCC(O)COCC1COc2ccccc2O1 (stereo not shown) [Example 1, 3-tertiobutylamino-1-[(1,4-benzodioxan)-2-ylmethoxy]-2-propanol maleate]
opposition of ectopic rhythm ([2]; ten dogs, ouabain): opposes ectopic rhythm in all the animals | period of activity ([2]; in 80% of the cases): more than 30 minutes | % reduction of auricular tachycardia [3]: 60% | effect on auricular tachycardia [3]: reduces auricular tachycardia substantially and lastingly | persistence of the effect after injection [3]: 30 min | inhibition at 10 µg/mL [1]: 16% | chronotropic effect compared with dihydroquinidine ([1]; isolated rabbit right atrium, Ringer-Locke's solution): definitely a less negative chronotropic effect than dihydroquinidine | functional refractory period of the isolated atrium (isolated rabbit atrium): extends the functional refractory period of the isolated atrium in the same way as dihydroquinidine | beta-blocking effect (adrenergic receptors; 5 mg/kg): substantial | cardioselectivity (adrenergic receptors; 5 mg/kg): cardioselectivity is noted | reduction of isoprenaline tachycardia (adrenergic receptors; from 1 mg/kg intravenously): significantly reduces the isoprenaline tachycardia starting with a dose of 1 mg/kg intravenously | force of cardiac contraction (cardiovascular system): decreases the force of cardiac contraction | impact on the cardiovascular system (cardiovascular system): little impact on the cardiovascular system | peripheral resistances (cardiovascular system): decreases the force of cardiac contraction and the peripheral resistances | Potentialization of the barbiturate and chloralhydrate anesthesia (central nervous system): nothing to report | protection from toxicity of pentetrazole (toxicity of pentetrazole): does not protect mice from toxicity of pentetrazole | potentialization of toxicity to yohimbine (toxicity to yohimbine): No potentialization of toxicity to yohimbine | local anesthetic properties compared with Lidocaine (Local anesthesia): local anesthetic properties superior to Lidocaine | diuretic power (Urinary excretion): does not have any diuretic power | Urinary excretion (Urinary excretion; Control 28%): 35% | solubility (Solubility in water): 100 mg/mL
